Data: a melting point compilation (Tetko et al.)
Peptide text beside a SMILES is read from it.

O=[N+]([O-])c1ccc(OCCCBr)cc1
melting point: 56 to 58 °C

CCCCC(O)C(O)CO (stereo not given)
melting point: 92 to 97 °C

COc1ccc(C(=O)Oc2ccc(C(=O)/C=C/c3ccc4c(c3)OCO4)cc2)cc1
melting point: 169 °C

COc1ccc2nc(C)ccc2c1
melting point: 64 °C

O=C1C(=C2Nc3ccccc3C2=O)Nc2ccccc21
melting point: 300 °C

O=[N+]([O-])c1ccccc1/C=C(/Cl)c1ccccn1
melting point: 60.5 to 61 °C

CN(C)C1(C#N)CCOCC1
melting point: 51 to 52 °C

Cc1c(S(=O)(=O)Cl)sc2ccc(Cl)cc12
melting point: 153 °C

OCc1c(F)cccc1Cl
melting point: 43 °C

CC(C)[C@H](NC(=O)OCC1c2ccccc2-c2ccccc21)C(=O)Oc1c(F)c(F)c(F)c(F)c1F
melting point: 121 to 122 °C

CCCC(CCC)C(=O)O
melting point: 125 °C

O=C(CCCNC(=O)CCCCC(=O)NCCCC(=O)NO)NO
melting point: 163 °C

CCN(CC)c1cccc(O)c1
melting point: 78 °C

Cc1csc(C(=O)NN)c1Cl
melting point: 130 to 132 °C

CCCCCCCCCCCC(CCCCCCCC)c1ccccc1 (stereo not given)
melting point: 17.9 °C

Cc1ccc(F)cc1C(N)=O
melting point: 120 to 122 °C

O=C(O)C1c2ccccc2C(=O)N(Cc2ccc(F)cc2)C1c1cccnc1 (stereo not given)
melting point: 250 °C

NNC(=O)Cc1nc(-c2cnccn2)no1
melting point: 184 to 186 °C

O=C(O)c1cccc2cccc(C(=O)O)c12
melting point: 260 °C

N#Cc1ccc2ccccc2n1
melting point: 95 °C

CNCc1ccc(-n2ccnc2)cc1
melting point: 67 to 69 °C

COc1ccc(C(=O)O)cc1Br
melting point: 220 °C

O=Cc1cnc(Br)s1
melting point: 94 °C

BrCCC1CCCCC1
melting point: -57 °C

CCc1cccc2c3c([nH]c12)C(CC)(CC(=O)O)OCC3 (stereo not given)
melting point: 146 °C

CCOC(=O)c1[nH]c(C)c(S(=O)(=O)Cl)c1C
melting point: 150 °C

CC(C)(C)c1ccc(-c2nn[nH]n2)cc1
melting point: 193 to 195 °C

CC(=O)N1CCC(C(=O)Cl)CC1
melting point: 132 °C

O=C(c1ccccc1)N1CC(c2ccccc2)C=C1c1ccccc1 (stereo not given)
melting point: 180 °C

CC(CC(N)=O)n1nc2ccccc2n1 (stereo not given)
melting point: 152 °C

Cc1n[nH]c(=S)n(N)c1=O
melting point: 183 to 184 °C

O=C(O)/C(=C/c1ccccc1)Cc1ccccc1
melting point: 157 to 158 °C

CCCc1cc(C(N)=S)ccn1
melting point: 137 °C

CC(=O)Nc1cc(NC(C)=O)c(C=Cc2ccccc2)c([N+](=O)[O-])c1C=Cc1ccccc1
melting point: 276 °C

O=C(CO)[C@@H](O)[C@@H](O)[C@H](O)[C@H](O)CO
melting point: 151 °C

COC(=O)CCC(C)C1CCC2C3C(OC(C)=O)CC4CC(OC(C)=O)CCC4(C)C3CC(=O)C12C (stereo not given)
melting point: 178 °C

c1cc2c(ccc3nonc32)nn1
melting point: 139 to 141 °C

NCC(=O)NCC(=O)NCC(=O)NCC(=O)O (H-GGGG-OH)
melting point: 300 °C

CC(C)c1cc(C(C)C)c(-c2ccccc2P(C2CCCCC2)C2CCCCC2)c(C(C)C)c1
melting point: 185 °C

O=C1OC(c2ccccc2)=NC1=Cc1ccc(Cl)cc1Cl
melting point: 180 °C

COc1cc(NS(=O)(=O)c2ccc(N)cc2)nc(C)n1
melting point: 146 °C

CC1(O)CSC(C)(O)CS1 (stereo not given)
melting point: 64 to 65 °C

CC(=O)Oc1c[nH]c2ccccc12
melting point: 129 °C

CCOC(=O)C(C#N)=Cc1ccccc1
melting point: 51 °C

CCCOC(=O)c1ccccc1O
melting point: 97 °C

c1cc(-c2csnn2)ccc1OCC1CO1 (stereo not given)
melting point: 70 to 72 °C

NC(=O)C(F)(F)Cl
melting point: 82 °C

CC(=O)CCc1oc2ccc(Cl)cc2c1-c1ccc(C)o1
melting point: 75 °C

CC(C)(C)N(NC(=O)c1ccccc1)C(=O)c1ccccc1Cl
melting point: 162 °C

O=C(O)c1cc2cc(OC(F)(F)F)ccc2[nH]1
melting point: 204 to 207 °C

O=C1NC(=S)NC(=O)C1=NNc1ccccc1[N+](=O)[O-]
melting point: 330 °C

CC1N=C(S)N2C(C)N=C(S)N12 (stereo not given)
melting point: 182 to 184 °C

CC1CCc2ccccc2C1 (stereo not given)
melting point: -43.1 °C

CN(C)c1ccc(/C=C/C(=O)CCc2ccccc2)cc1
melting point: 93 °C

COC(=O)c1cc(C)n(CN(Cn2nc(C(=O)OC)cc2C)c2ccccc2)n1
melting point: 124 to 126 °C

CCC(CO)NCCNC(CC)CO (stereo not given)
melting point: 89 °C

COC(=O)C1=C(C)NC(CBr)=C(C(=O)OCCCl)C1c1cccc([N+](=O)[O-])c1 (stereo not given)
melting point: 205 to 206 °C

N#CC1OCC(OC(=O)c2ccccc2)C(OC(=O)c2ccccc2)C1OC(=O)c1ccccc1 (stereo not given)
melting point: 155 °C

O=C(O)C(F)(F)C(F)(F)C(F)(F)C(F)(F)C(F)(F)C(F)(F)C(F)(F)C(F)(F)C(F)(F)C(F)(F)C(F)(F)C(F)(F)F
melting point: 118 to 122 °C

COc1c(Cl)c(Cl)cc(Cl)c1Cl
melting point: 88.5 °C

N#CC(=Cc1ccccc1)C(N)=O
melting point: 155 °C

CCCCCCC(CCCCCC)CCCCCC
melting point: -28.3 °C

C1CCNC1
melting point: -57.8 °C

Cc1ccc([N+](=O)[O-])cc1N=C=O
melting point: 51 °C

CCCCOC(=O)CC(CC(=O)OCCCC)(OC(C)=O)C(=O)OCCCC
melting point: -59 °C

COc1ccc(C(=O)c2ccccc2C(=O)O)cc1
melting point: 146 °C

O=C1C(c2ccccn2)=[N+]([O-])c2ccccc21
melting point: 182 °C

O=Cc1cccc(-c2ccsc2)c1
melting point: 48 to 49 °C

CCCCCCCCCCCCCC(=O)Oc1ccc(N=Cc2cccnc2)cc1
melting point: 82.7 °C

COc1ccc(-c2csc(/C(C#N)=N\Nc3ccc(O)cc3)n2)cc1
melting point: 235 °C

CC(=O)C12OC(C)(c3ccccc3)OC1CC1C3CCC4=CC(=O)CCC4(C)C3CCC12C (stereo not given)
melting point: 150 °C

CC1OC(C)OC(C)OC(C)O1 (stereo not given)
melting point: 246 °C

O=[N+]([O-])c1ccc(Cl)nc1
melting point: 107 °C

CSc1nc2ccccc2s1
melting point: 44 °C

Brc1ccsc1Br
melting point: -17.5 °C

Nc1cc(C(F)(F)F)ccn1
melting point: 73 °C

CCOC(=O)C1=C(C)NC(C)=C(C(=O)OC)C1c1cccc([N+](=O)[O-])c1 (stereo not given)
melting point: 158 °C

Clc1ccccc1C(c1ccccc1)(c1ccccc1)n1ccnc1
melting point: 147 °C

COc1cc(Cl)c(Cl)c(Cl)c1OC
melting point: 66 °C

CC(C)(C)n1nc(-c2ccc(Cl)cc2)c(C#N)c1N
melting point: 154 to 155 °C

ON=C1CCCc2c1nc(-c1ccccc1)n2O
melting point: 270 to 272 °C

CN1C(=O)Cc2cc(S(=O)(=O)Cl)ccc21
melting point: 154 to 158 °C

Fc1cc(F)c(Br)c(F)c1
melting point: 4 °C

O=c1[nH]c(=O)c2cn[nH]c2[nH]1
melting point: 300 °C

CC(=O)N1N=C2c3ccccc3CCC2C1c1ccc(Cl)cc1 (stereo not given)
melting point: 182 to 183 °C

N[C@@H]1CCc2ccccc21
melting point: 15 °C

N#Cc1ccc(-c2nccs2)cc1
melting point: 102 to 103 °C

NC(=S)N1CCOCC1
melting point: 153 to 156 °C

COc1cc(Cc2cnc(N)nc2N)cc(OC)c1Br
melting point: 226 °C

COc1cc2c(N)nc(N3CCN(C(=O)OCC(C)(C)O)CC3)nc2c(OC)c1OC
melting point: 158 °C
